{"source": "patent US20140271573A1", "about": "“PHARMACO-CELLULAR THERAPEUTIC METHOD FOR THE TREATMENT OF MUSCULAR DYSTROPHIES” (PONTIFICIA UNIVERSIDAD CATÓLICA DE CHILE, priority 2013, published 2014)", "key": {"C2C12": {"test_system": "C2C12", "experiment": "Fibronectin and collagen type III protein levels induced by TGF-β1 in C2C12 cells, immunoblot", "assay_type": "cell-based, mouse", "details": "C2C12, 10 ng/ml TGF-β1, 50 μM andrographolide, 24 hrs"}, "mdx mice [1]": {"test_system": "mdx mice", "experiment": "Treadmill running test (step backs) in mdx mice", "assay_type": "in vivo, mouse", "details": "treated mdx mice, treadmill at 15 m/min", "method": "FIG. 6. Andrographolide increased skeletal muscle strength and exercise performance in mdx mice. 3 months old Wild Type (WT) and mdx mice were subjected to an exercise protocol for 3 months to augment the extent of muscle fibrosis. Along this period one group was treated with 1 mg/kg andrographolide or vehicle (i.p. injections 3 time per week, 6 animal per group). A) tibialis anterior muscles from wild-type (WT), Vehicle-treated mdx and andrographolide-treated mdx mice were isolated to evaluate isometric specific force (mN/mm2) at different stimulation frequencies (pulses per second, pps). B) Bar graph showing tetanic specific force. Values are represented as percentage of specific isometric force generated by Wild type muscle (*, P<0.05 relative to WT mice; #, P<0.05 relative to Vehicle-treated mdx mice). C) Bar graph showing twitch force (*, P<0.05 relative to WT mice; #, P<0.05 relative to Vehicle-treated mdx mice). D) Mice were subjected to an exercise challenge into the treadmill at 15 meters/min for 5 minutes and the number of stebacks was counted (*, P<0.05 relative to WT mice; #, P<0.05 relative to Vehicle-treated mdx mice).\nMice were subjected to a running test during […] at 15 m/min in a treadmill. The number of times that mice were retarded (step backs) to the first ⅓ of the moving platform was counted (Cabello-Verrugio et al., 2012)."}, "MES-13 cells": {"test_system": "MES-13 cells", "details": "cited from earlier work"}, "TGF-β1": {"test_system": "TGF-β1", "experiment": "TGF-β1 mRNA levels in tibialis anterior muscle of exercised mdx mice, RT-qPCR", "assay_type": "in vivo, mouse", "details": "1 mg/kg i.p. 3 times per week for 3 months, vs vehicle", "method": "FIG. 2. Andrographolide reduced expression and activity of the pro-fibrotic cytokine, TGF-β1, in mdx mice. To augment the extent of muscle fibrosis, 3 months old mdx mice were subjected to an exercise protocol for 3 months. Along this period one group was treated with 1 mg/kg andrographolide or vehicle (i.p. injections 3 time per week, 4 animal per group). A) TGF-β1 mRNA levels, an important pro-fibrotic cytokine, were determined in tibialis anterior muscle from Wild type (WT), Vehicle-Treated mdx and andrographolide-treated mdx mice by RT-qPCR using GAPDH as reference gene. Values correspond to the mean of dCT value±SD of three independent experiments, using four mice for each experimental condition and normalized to WT levels (*, P<0.05 relative to WT mice; #, P<0.05 relative to Vehicle-treated mdx mice). B) Detection of pSmad-2 (an intracellular TGF-β1 mediator) through indirect immunofluorescence analysis in cryosections of tibialis anterior muscle from Vehicle-treated and andrographolide-treated mdx mice. Bar corresponds to 200 μm.\nControl or mdx (12 weeks old) male mice of C57BL/10 ScSn strain were studied. The animals were kept at room temperature with a […] night-day cycle and fed with pellets and water ad libitum. […]"}, "mdx mice [2]": {"test_system": "mdx mice", "experiment": "Hematoxylin and eosin histology of tibialis anterior muscle of mdx mice", "assay_type": "in vivo, mouse", "details": "exercised mdx mice, 1 mg/kg i.p. 3 times per week for 3 months, vs vehicle", "method": "FIG. 4. Andrographolide reduced skeletal muscle damage in mdx mice. To augment the extent of muscle fibrosis, 3 months old mdx mice were subjected to an exercise protocol for 3 months. Along this period one group was treated with 1 mg/kg andrographolide or vehicle (i.p. injections 3 time per week, 6 animal per group). […] B) Evans blue dye uptake in tibialis anterior muscle fibers from wild-type (WT), Vehicle-treated mdx and andrographolide-treated mdx mice. Nuclei were labeled with Hoechst. Mice were injected i.p. with 1% Evans blue dye 24 hours before muscle fixation. Bar corresponds to 200 μm. […] Values are expressed as mean±SD of three independent experiments, using eight mice for each experimental condition. (*, P<0.05 relative to WT mice; #, P<0.05 relative to Vehicle-treated mdx mice).\nControl or mdx (12 weeks old) male mice of C57BL/10 ScSn strain were studied. The animals were kept at room temperature with a […] night-day cycle and fed with pellets and water ad libitum. Experimental exercise was performed for running the mice in a treadmill for three times per week, 30 minutes each time at 12 m/min during 3 or 4 months (De Luca et al., 2005; De Luca et al., 2003). […]\nArchitecture and histology were detected by hematoxylin-eosin (H&E) stain in transverse sections of muscle (Morales et al., 2011)."}}, "note": "“Also recorded” adds a separate entry of the source."}
{"smiles": "C=C1CC[C@@H]2[C@](C)(CO)[C@H](O)CC[C@@]2(C)[C@@H]1C/C=C1/C(=O)OC[C@H]1O", "note": "[andrographolide]", "values": [{"measurement": "collagen type III protein levels induced by TGF-β1 in vitro", "setting": "C2C12", "value": "decreased"}, {"measurement": "fibronectin protein levels induced by TGF-β1 in vitro", "setting": "C2C12", "value": "decreased"}, {"measurement": "number of stepbacks at the treadmill", "setting": "mdx mice [1]", "value": "decreased"}, {"measurement": "phenotypes indicating diabetic nephropathy in MES-13 cells", "setting": "MES-13 cells; MES-13 cells", "value": "reduces"}, {"measurement": "antioxidant ability in a cellular environment", "setting": "MES-13 cells", "value": "do not have antioxidant ability"}, {"measurement": "intracellular oxidative states", "setting": "MES-13 cells; high glucose cultured MES-13 cells", "value": "reduced"}, {"measurement": "expression of TGF-β1 (mRNA) in mdx mice", "setting": "TGF-β1", "value": "reduced"}, {"measurement": "damaged areas in muscle, hematoxylin and eosin staining", "setting": "mdx mice [2]", "value": "striking smaller muscle damaged areas; also recorded: prevented the increase of damaged areas"}]}
